Values quoted from earlier work as cited in patent US7332498B2, “Modulation of KSP kinesin activity with heterocyclic-fused pyrimidinone derivatives” (Cytokinetics, Inc., priority 2002, dated 2008).

System: A549 cells
Settings: data provided by National Cancer Institute, Developmental Therapeutic Program

SMILES | GI50
COc1cccc2c1C(=O)c1c(O)c3c(c(O)c1C2=O)C[C@@](O)(C(=O)CO)C[C@@H]3O[C@H]1C[C@H](N)[C@H](O)[C@H](C)O1 [doxorubicin] | 63 nM
O=c1[nH]cc(F)c(=O)[nH]1 [5-fluorouracil] | 1000 nM
NC(=O)NO [hydroxyurea] | 500000 nM
CC(=O)O[C@H]1C(=O)[C@@]2(C)[C@H]([C@H](OC(=O)c3ccccc3)[C@]3(O)C[C@H](OC(=O)[C@H](O)[C@@H](NC(=O)c4ccccc4)c4ccccc4)C(C)=C1C3(C)C)[C@]1(OC(C)=O)CO[C@@H]1C[C@@H]2O [paclitaxel] | 4 nM
